Assay results as given in US20260284211A1, “DISACCHARIDE LINKER, LINKER-PAYLOAD CONTAINING THE SAME AND GLYCAN CHAIN-REMODELED ANTIBODY-DRUG CONJUGATE, PREPARATION METHOD AND USES THEREOF” (GENEQUANTUM HEALTHCARE (SUZHOU) CO., LTD., priority 2023, published 2026).

Experiments:
Format in all cases: cell-based
NCI-N87 tumor cells = test: Inhibition of NCI-N87 tumor cell proliferation (CellTiter-Glo); conditions: Homo sapiens, HER2 high expression cells, 96 hours, cell viability, read-out: IC50, inhibitory effects on NCI-N87 tumor cells
Protocol: (§1) Tumor cells in the logarithmic phase of growth were collected, and 5000 cells per well were evenly inoculated in each hole of the 96-well plate. After the cell adhesion overnight, the cells were treated with different concentrations of drugs for 96 hours. Cell viability was measured by CellTiter-Glo® luminescence cell viability detection kit, and the percentage of cell viability was calculated.

MDA-MB-468 tumor cells = test: Inhibition of MDA-MB-468 tumor cell proliferation (CellTiter-Glo); conditions: Homo sapiens, HER2-negative cells, 96 hours, cell viability, read-out: IC50, inhibitory effects on MDA-MB-468 tumor cells
Protocol: as §1

SK-BR-3 tumor cells = test: Inhibition of SK-BR-3 tumor cell proliferation (CellTiter-Glo); conditions: Homo sapiens, HER2 high expression cells, 96 hours, cell viability, read-out: IC50, inhibitory effects on SK-BR-3 tumor cells
Protocol: as §1

IC50 (NCI-N87 tumor cells): 0.614 nM
IC50 (MDA-MB-468 tumor cells): 0.0933 nM
IC50 (SK-BR-3 tumor cells): 0.305 nM
Structure (SMILES): C=C1C[C@@H]2CC[C@@]34C[C@H]5O[C@H]6[C@@H](O3)[C@H]3O[C@H](CC[C@@H]3O[C@H]6[C@H]5O4)CC(=O)C[C@@H]3[C@@H](OC)[C@@H](C[C@H](O)CN)O[C@H]3C[C@H]3O[C@@H](CC[C@@H]1O2)C[C@@H](C)C3=C [Eribulin]
